# From patent publication US5858702A, “Isolation, cloning and expression of transmembrane water channel Aquaporin 5 (AQP5)” (The Johns Hopkins University, priority 1995, dated 1999)
# Entries after “also recorded” stand apart in the source; their conditions may differ.
# What was measured:
# Xenopus oocytes = test: Osmotic water permeability (swelling) of control- or AQP1 RNA-injected Xenopus oocytes; type: cell-based, Xenopus laevis; conditions: control-injected oocytes (RNA None), 22° C.
# Protocol: (§1) Expression of AOP1 in Xenopus oocytes. Oocytes were removed from female Xenopus laevis frogs and prepared as described by Dascal (CRC Crit. Rev. Biochem., 1987, 22:317-373). Oocytes were injected with 0.05 microliters of water (control) or the same volume of water containing 1-10 nanograms of AQP1 RNA. The oocytes were incubated for up to 96 hours at 18° C. in modified Barth's buffer (88 mM NaCl, 1 mM KCl, 0.8 mM MgSO4, 0.3 mM Ca(NO3) 2, 0.4 mM CaCl2, 2.4 mM NaHCO3, 10 mM HEPES, pH =7.4, total osmolality =200 mOsm/kg) also containing antibiotics. The whole oocytes were then removed and total cellular protein was dissolved in 40 microliters of buffer containing 1% (w/v) SDS and analyzed by immunoblot (Towbin et al., 1979, Proc. Natl. Acad. Sci. USA 76:4350-4354).
# A swelling assay was adapted from that of published work (Fischbarg et al., 1990, Proc. Natl. Acad. Sci. USA 87:3244-3247; Zhang et al., 1990, J. Biol. Chem. 265:15375-15378). […] Swelling was monitored with a Nikon phase-contrast microscope equipped for videorecording. The longest (D1) and shortest (D2) diameters of the oocytes were measured at 15- to 30-second intervals. Oocyte volumes (V) at each time point were calculated relative to volume at the initial observation (V0): […]
# AQP1 = target: T1, AQP1 (Homo sapiens, UniProt P29972); test: Xenopus oocyte osmotic swelling assay, AQP1 RNA-injected oocytes treated with HgCl2 / β-mercaptoethanol; type: cell-based; conditions: for Pf: AQP1 RNA-injected (10 ng) oocytes
# T1 construct: expressed in transfected cells; host or cells: Xenopus laevis oocytes injected with in vitro transcribed AQP1 RNA
# T1 sequence (P29972 1-269): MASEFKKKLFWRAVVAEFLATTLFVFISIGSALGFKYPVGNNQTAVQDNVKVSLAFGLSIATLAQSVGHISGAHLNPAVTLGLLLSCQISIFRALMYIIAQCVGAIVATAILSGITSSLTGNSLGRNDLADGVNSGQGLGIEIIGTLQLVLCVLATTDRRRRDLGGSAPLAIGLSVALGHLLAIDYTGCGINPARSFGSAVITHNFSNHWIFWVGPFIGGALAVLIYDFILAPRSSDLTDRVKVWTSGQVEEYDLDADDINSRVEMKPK
# Protocol: as §1
# A swelling assay was adapted from that of published work (Fischbarg et al., 1990, Proc. Natl. Acad. Sci. USA 87:3244-3247; Zhang et al., 1990, J. Biol. Chem. 265:15375-15378). Control-injected oocytes and AQP1 RNA-injected oocytes were incubated at 22° C. in modified Barth's solution diluted with distilled H2 O to 30% of the original tonicity. The oocytes were then observed by videomicroscopy. Swelling was monitored with a Nikon phase-contrast microscope equipped for videorecording. The longest (D1) and shortest (D2) diameters of the oocytes were measured at 15- to 30-second intervals. Oocyte volumes (V) at each time point were calculated relative to volume at the initial observation (V0):
# The change in relative volume with time, d(V/Vo)/dt, up to 8 minutes (or time of oocyte rupture) was fitted by computer to a quadratic polynomial, and initial rates of swelling were calculated. Osmotic water permeability (Pf, in cm/s) was calculated from osmotic swelling data, initial oocyte surface area (S=0.045 cm^2), and the molar volume of water (Vw =18 cm^3 /mol) (Zhang et al., 1990, J. Biol. Chem. 15375):
# Pf =[Vo ×d(V/V0)dt]/[S×Vw
# After 72 hours, control- or AQP1 RNA-injected (10 ng) oocytes were treated as indicated. Some oocytes were left in standard Barth's buffer prior to measurement of osmotic swelling at 22° C. […]
# AQP5 = target: T2, AQP5 (Rattus norvegicus, UniProt P47864); test: Xenopus oocyte swelling assay, AQP5-expressing oocytes treated with HgCl2 / β-mercaptoethanol; type: cell-based; conditions: for effect of HgCl2 on Pf of oocytes expressing AQP5: 1 mM HgCl2, 5 min.
# T2 construct: expressed in transfected cells; host or cells: Xenopus oocytes (defolliculated, stage V-VI) injected with cRNA
# T2 sequence (P47864 whole entry): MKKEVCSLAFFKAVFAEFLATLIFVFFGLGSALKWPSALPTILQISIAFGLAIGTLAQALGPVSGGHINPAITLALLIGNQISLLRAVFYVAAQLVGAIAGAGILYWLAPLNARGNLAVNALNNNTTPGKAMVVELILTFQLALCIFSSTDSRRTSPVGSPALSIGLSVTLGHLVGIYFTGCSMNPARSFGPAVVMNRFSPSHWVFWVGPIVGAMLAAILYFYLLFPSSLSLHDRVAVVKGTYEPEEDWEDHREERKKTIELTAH
# Protocol: Functional expression in Oocytes--A 1-kb BamHI fragment containing the 5' untranslated sequence and the entire open reading frame of the salivary cDNA was blunt-end-ligated into the BglII site of the Xenopus expression construct pXβG, which contains the HindIII-Pst insert of pSP64T in pBS II KS (Preston et al., 1992, Science, 256:385-387). Capped cRNA was synthesized in vitro after digestion with Xbal (Preston et al., 1993). Defolliculated stage V-VI Xenopus oocytes were injected with 50 nl of water or up to 5 ng of sample cRNAs and incubated for 3 days at 18° C. in 200 mosM modified Barth's buffer. The oocytes were transferred to 70 mosM modified Barth's buffer at 21° C.; oocyte swelling was monitored by videomicroscopy, and the coefficient of osmotic water permeability (Pf) was determined (Preston et al., 1992, 1993). Uptake of [^14 C]urea or [^14 C]glycerol was measured by incubating oocytes in 200 mosM Barth's buffer for 10-20 min at 21° C. followed by washing and SDS solubilization. No increase in ion conductance was found when control oocytes were compared to RNA-injected oocytes by two electrode voltage clamps (Preston et al, 1992).
# Shown are the mean values and standard deviations of 4-5 oocytes receiving no further treatment (stippled bars), oocytes incubated for 5 min. in 1 mM HgCl2 (black bars), or oocytes incubated for 5 min. in 1 mM HgCl2 followed by 30 min. in 5 mM β-mercaptoethanol (open bars). Similar to oocytes injected with AQP1 cRNA, injection of oocytes with the salivary cRNA increased the Pf by approximately 20-fold (FIG. 15). Therefore, the salivary protein qualifies as the 5th mammalian member of the Aquaporin family of water channels (Agre et al., 1993b, Am. J. Physiol., 265:F461), and the gene has been designated Aquaporin-5 (symbol AQP5) by the Genome Data Base.
"Pf of AQP1 oocytes after HgCl2, effect of β-mercaptoethanol (AQP1; 5 mM β-mercaptoethanol 30 min. after 1 mM HgCl2 (FIG. 15))","Swelling of AQP1 RNA-injected oocytes after HgCl2, effect of β-mercaptoethanol (AQP1; 5 mM β-mercaptoethanol after 0.3 mM HgCl2)","Pf (AQP1; HgCl2 0.3 then ME 5 for 15 min, 22° C.)","Pf of AQP5 oocytes after HgCl2, effect of β-mercaptoethanol (AQP5; 5 mM β-mercaptoethanol 30 min. after 1 mM HgCl2)",Structure (SMILES),"Pf (Xenopus oocytes; HgCl2 0.3 (nM), ME 0)","Swelling of AQP1 RNA-injected oocytes, effect of HgCl2 (AQP1; 0.3 mM HgCl2)","effect of HgCl2 on increase in Pf mediated by AQP1 (AQP1; 1 mM HgCl2, 5 min. (FIG. 15))","Pf (AQP1; 72 hours, HgCl2 0.3, ME 0, 5 minutes, swelling at 22° C.)","Pf (AQP1; 72 hours, HgCl2 3.0, ME 0, 5 minutes, 22° C.)",effect of HgCl2 on Pf of oocytes expressing AQP5 (AQP5),effect of HgCl2 on Pf of oocytes expressing AQP5 (AQP5; listed as Hg Cl2),Pf (Xenopus oocytes)
–,–,–,–,[Cl][Hg][Cl] [HgCl2],20.3 cm/s x 10^-4,inhibited,blocked,80.7 cm/s x 10^-4,34.5 cm/s x 10^-4,comparable reduction in Pf; also recorded: reversibly inhibited,reversibly inhibited,–
restored,restored,188 cm/s x 10^-4,restored,OCCS [β-mercaptoethanol],–,–,–,–,–,–,–,25.4 cm/s x 10^-4
